Source: US11243205B2, “Method of diagnosis of breast cancer” (LA TROBE UNIVERSITY, priority 2015, dated 2022)

Assays:
PD-L1 = experiment: FACS analysis for PD-L1 cell surface expression after interferon treatment; type: cell-based; conditions: IFNα 1000 IU/ml, 48 hours, **p<0.01
Method: A loss of IRF9 causes PD-L1 expression to be increased after IFNα stimulation. FACS analysis for PD-L1 cell surface expression using PE tagged anti-PD-L1, MIH5 (1:50). Cells were treated with IFNα (1000 IU/ml) or IFNγ (10 ng/ml) for 48 hours prior to FACS. Data is represented as normalised mean fluorescence intensity (MFI). Error bars represent SEM, n=3. Statistical significance values equal: **p<0.01.

4T1.2-luc2 cells = experiment: poly(I:C) treatment of mice bearing 4T1.2-luc2 mammary fat pad tumours, metastasis by bioluminescence and QPCR; type: in vivo, balb/c mice; conditions: 25 ug poly(I:C) 3x weekly IV from day 4; primary tumour resected at 0.4 g; bioluminescence and QPCR of luciferase vs vimentin; *p<0.05, **p<0.01
Method: From day 4, mice were treated with 25 ug poly(I:C) or control 3× weekly IV. After primary tumour resection at 0.4 g, mice were monitored for metastasis by bioluminescence (A) and by QPCR analysis of luciferase expression compared to vimentin at end point (B). *p<0.05, **p<0.01.
Expression of Irf9 is knocked out in balb/c (66c14, 4T1) and C57 B1/6 (EO771, PyMT) mouse cell lines and the impact on tumour cell proliferation and orthotopic tumour growth and metastasis in vivo, is required. Associated changes in tumour infiltating and circulating immune cells, impact on tumour cell susceptibility to immune effector cells in vitro and the impact of NK cell specific loss of IFN signalling is measured. • a) Using TALEN technology (Boch J. TALEs of genome targeting. Nature biotechnology. 2011; 29(2):135-6) an Irf9 knockout 4T1 cell line has been generated (FIG. 5). This is repeated in 66c14, EO771 and PyMT cell lines. Given that Irf7 is induced by the ISGF3 complex of STAT1/2 and Irf9, Irf9 loss will likely directly result in reduction of Irf7. Irf7 we can also be knocked out directly in these cells. • The impact of Irf9 loss is measured on cellular proliferation using the SRB assay. […] The activation and function of NK cells is measured by measuring the expression of NKG2D, DNAM-1 and IFNγ on NKp46^+ NK cells. […]

4T1.2-Luc2 = experiment: neo-adjuvant poly(I:C) therapy, primary tumour growth and survival; type: in vivo, Balb/c mice
Method: Female 8-week-old Balb/c mice were administered poly(I:C) (25 μg, I.V., thrice weekly) and/or doxorubicin (4 mg/kg, twice weekly) beginning 2 days post tumour cell inoculation (100,000 4T1.2-Luc2 IMFP). Differences in primary tumour growth were detectable 6 days after tumour cell inoculation using bioluminescent imaging (of four mice representative of the larger cohort) (A). Therapy was ceased and primary tumours were surgically removed and weighed 12 days post tumour cell injection (B). n=10 mice per group, error bars represent the 95% CI, *p<0.05, **p<0.01, ***p<0.001 using Student's t-tests.
Mice used in FIG. 2 continued to undergo weekly bioluminescent imaging to visualise the kinetics of metastatic spread. (A) Images taken 19 and 23 days post tumour cell inoculation are of the same four mice in identical order and representative of the larger cohort. (B) Mice were individually sacrificed at first signs of metastatic distress and dates recorded to generate Kaplan-Meier survival estimates. […]
Tumour-bearing mice are treated with poly(I:C), a stable derivative of poly(I:C):poly ICLC that is currently in clinical trials (Hiltonol™, Oncovir) or recombinant IFNα1 in early and late treatment settings and the impact of such treatments on immune activation and function, primary tumour growth and metastasis is measured. […]

IFNα
PD-L1 expression in cells with loss of IRF9 (PD-L1): increased

poly(I:C)
metastasis to lung and bone (4T1.2-luc2 cells): reduces metastasis to lung and bone
survival (Kaplan-Meier) (4T1.2-Luc2; neo-adjuvant therapy ceased day 12, mice sacrificed at first signs of metastatic distress, ***p<0.001): prolongs survival
primary tumour growth (4T1.2-Luc2; poly(I:C) 25 μg I.V. thrice weekly from 2 days post inoculation, bioluminescence day 6, tumour weight day 12): reduces primary tumour growth
